Data reported in patent publication US5869494A, “Uses for barbituric acid analogs” (priority 1997, dated 1999).
Where two headings read alike, the source gives them in different places.

Legend:
Format in all cases: cell-based
[1] = test system: BT-20 human breast cancer cells; assay: Cytotoxicity for breast cancer cell line BT-20 (MTT assay); settings: read-out: Percent cell kill; for cytotoxicity at 100 µg/mL: 100 μg/ml; for cytotoxicity at 150 µg/mL: 150 μg/ml; for cytotoxicity at 200 µg/mL: 200 μg/ml
Protocol: (§1) In the following examples, tumor cells were treated with varying concentrations of compounds C1, C2, C4 or C5 dissolved in absolute ethanol. To limit any non-specific toxicity, the final concentration of ethanol was not allowed to exceed 0.5%. Stock concentrations of 5 mg/ml or 20 mg/ml were used. Viability of cells was determined in some studies by the trypan blue dye exclusion method. In other studies, cell viability/proliferation activity was determined by MTT assay by using a kit obtained from Promega, (Promega Corp., Madison, Wis. 53711). For this assay, a 100 μl cell suspension containing 5-10^3 monolayer cells or 1×10^5 suspension cells was placed in the wells of a 96-well microtiter plate. After overnight incubation, cells were treated with different concentrations of the test compound. Control wells received vehicle only. After 24, 48, 72 or 96 h of incubation, 50 μl of MTT dye solution was added. After 4 h of incubation at 37° C., 100 μl of solubilization/stop solution was added. After another h of incubation, cells were mixed using a multi-channel pipet and the absorption of the dye color was recorded at 570 nm using a plate reading absorption spectrophotometer.
(§2) After the incubation period, viability of the cells was determined by MTT assay (Promega Corp., Madison, Wis. 53711).

[2] = test system: PC-3 human prostate cancer cells; assay: Cytotoxicity for prostate cancer cell line PC-3 (MTT assay); settings: read-out: Percent cell kill; for cytotoxicity at 100 µg/mL: 100 μg/ml; for cytotoxicity at 150 µg/mL: 150 μg/ml; for cytotoxicity at 200 µg/mL: 200 μg/ml
Protocol: as §1, §2

[3] = test system: MCF-7 human breast cancer cells; assay: Cytotoxicity for breast cancer cell line MCF-7 (MTT assay); settings: read-out: Percent cell kill; for cytotoxicity at 100 µg/mL: 100 μg/ml; for cytotoxicity at 150 µg/mL: 150 μg/ml; for cytotoxicity at 200 µg/mL: 200 μg/ml
Protocol: as §1, §2

[4] = test system: DU-145 human prostate cancer cells; assay: Cytotoxicity for prostate cancer cell line DU-145 (MTT assay); settings: read-out: Percent cell kill; for cytotoxicity at 100 µg/mL: 100 μg/ml; for cytotoxicity at 150 µg/mL: 150 μg/ml; for cytotoxicity at 200 µg/mL: 200 μg/ml
Protocol: as §1, §2

[5] = test system: Daudi human lymphoma cells; assay: Cytotoxicity for lymphoma cells (Daudi); settings: Homo sapiens, Daudi; for cytotoxicity at 100 µg/mL: 100 μg/ml; for cytotoxicity at 150 µg/mL: 150 μg/ml, read-out: % Cytotoxicity; for cytotoxicity at 200 µg/mL: 200 μg/ml
Protocol: as §1
The viability of the cells was
Compounds C4 and C5 were also tested for toxicity against human lymphoma Daudi cells.

[6] = test system: L1210 mouse leukemia cells; assay: Cytotoxicity for leukemia cells (L1210); settings: for cytotoxicity at 100 µg/mL / cytotoxicity at 150 µg/mL / cytotoxicity at 200 µg/mL: Mus musculus; for cytotoxicity at 100 µg/mL: 100 μg/ml; for cytotoxicity at 150 µg/mL: 150 μg/ml
Protocol: as §1
The viability of the cells was […]

In the case of `CCCCN1C(=O)C(=O)C(=O)N(CCCC)C1=S` [Compound C2, 4,5,6(1H)-pyrimidinetrione, 1,3-dibutyldihydro-2-thioxo], the cytotoxicity at 100 µg/mL ([1]; BT-20, 24 h, 24 hr) is reported as 29.8 ± 6.8%, the cytotoxicity at 150 µg/mL ([1]; BT-20, 24 h, 24 hr) is reported as 30 ± 4.4% and the cytotoxicity at 200 µg/mL ([1]; BT-20, 24 h, 24 hr) is reported as 30.3 ± 2.9%. For the same molecule, the cytotoxicity at 100 µg/mL ([1]; BT-20, 48 h, 48 hr) was 51.8 ± 1.9%, the cytotoxicity at 150 µg/mL ([1]; BT-20, 48 h, 48 hr) was 50 ± 1.7% and the cytotoxicity at 200 µg/mL ([1]; BT-20, 48 h, 48 hr) was 55.5 ± 8.9%. For the same molecule, the cytotoxicity at 100 µg/mL ([1]; BT-20, 72 h, 72 hr) was 57.5 ± 2.6%, the cytotoxicity at 150 µg/mL ([1]; BT-20, 72 h, 72 hr) was 60.8 ± 2.8% and the cytotoxicity at 200 µg/mL ([1]; BT-20, 72 h, 72 hr) was 68.5 ± 3.4%. It also gave a cytotoxicity at 100 µg/mL ([1]; BT-20, 96 h, 96 hr) of 99.9%, a cytotoxicity at 150 µg/mL ([1]; BT-20, 96 h, 96 hr) of 99.9% and a cytotoxicity at 200 µg/mL ([1]; BT-20, 96 h, 96 hr) of 99.9%. It also gave a cytotoxicity at 100 µg/mL ([2]; 24 h, 24 hr) of 32.7 ± 6.2%, a cytotoxicity at 150 µg/mL ([2]; 24 h, 24 hr) of 47 ± 6.7% and a cytotoxicity at 200 µg/mL ([2]; 24 h, 24 hr) of 57.5 ± 3.5%. It also gave a cytotoxicity at 100 µg/mL ([2]; 48 h, 48 hr) of 46.2 ± 4.1%, a cytotoxicity at 150 µg/mL ([2]; 48 h, 48 hr) of 70.7 ± 6% and a cytotoxicity at 200 µg/mL ([2]; 48 h, 48 hr) of 81.5 ± 3.1%. For the same molecule, the cytotoxicity at 100 µg/mL ([2]; 72 h, 72 hr) was 51.5 ± 6.5%, the cytotoxicity at 150 µg/mL ([2]; 72 h, 72 hr) was 77.7 ± 4.6% and the cytotoxicity at 200 µg/mL ([2]; 72 h, 72 hr) was 88.5 ± 5.2%. The cytotoxicity at 100 µg/mL ([2]; 96 h, 96 hr) was 75 ± 1%, the cytotoxicity at 150 µg/mL ([2]; 96 h, 96 hr) was 88.7 ± 3.2% and the cytotoxicity at 200 µg/mL ([2]; 96 h, 96 hr) was 95 ± 3.6%. The cytotoxicity at 100 µg/mL ([3]; MCF7, 24 h, 24 hr) was 9 ± 7%, the cytotoxicity at 150 µg/mL ([3]; MCF7, 24 h, 24 hr) was 26.3 ± 7.9% and the cytotoxicity at 200 µg/mL ([3]; MCF7, 24 h, 24 hr) was 40 ± 10.6%. The cytotoxicity at 100 µg/mL ([3]; MCF7, 48 h, 48 hr) was 16.3 ± 4.8%, the cytotoxicity at 150 µg/mL ([3]; MCF7, 48 h, 48 hr) was 43.3 ± 7.3% and the cytotoxicity at 200 µg/mL ([3]; MCF7, 48 h, 48 hr) was 70.3 ± 7.8%. For the same molecule, the cytotoxicity at 100 µg/mL ([3]; MCF7, 72 h, 72 hr) was 33.3 ± 5.4%, the cytotoxicity at 150 µg/mL ([3]; MCF7, 72 h, 72 hr) was 61 ± 5.6% and the cytotoxicity at 200 µg/mL ([3]; MCF7, 72 h, 72 hr) was 81.3 ± 3.2%. The cytotoxicity at 100 µg/mL ([3]; MCF7, 96 h, 96 hr) was 87.7 ± 0.6%, the cytotoxicity at 150 µg/mL ([3]; MCF7, 96 h, 96 hr) was 97 ± 0.8% and the cytotoxicity at 200 µg/mL ([3]; MCF7, 96 h, 96 hr) was 94.3 ± 2.1%. It also gave a cytotoxicity at 100 µg/mL ([4]; DU-145, 24 h, 24 hr) of 0%, a cytotoxicity at 150 µg/mL ([4]; DU-145, 24 h, 24 hr) of 0% and a cytotoxicity at 200 µg/mL ([4]; DU-145, 24 h, 24 hr) of 0%. For the same molecule, the cytotoxicity at 100 µg/mL ([4]; DU-145, 48 h, 48 hr) was 0%, the cytotoxicity at 150 µg/mL ([4]; DU-145, 48 h, 48 hr) was 4.2 ± 3.9% and the cytotoxicity at 200 µg/mL ([4]; DU-145, 48 h, 48 hr) was 20 ± 3%. For the same molecule, the cytotoxicity at 100 µg/mL ([4]; DU-145, 72 h, 72 hr) was 0%, the cytotoxicity at 150 µg/mL ([4]; DU-145, 72 h, 72 hr) was 9.2 ± 5.3% and the cytotoxicity at 200 µg/mL ([4]; DU-145, 72 h, 72 hr) was 36.7 ± 2.1%. The cytotoxicity at 100 µg/mL ([4]; DU-145, 96 h, 96 hr) was 10 ± 6.1%, the cytotoxicity at 150 µg/mL ([4]; DU-145, 96 h, 96 hr) was 25.2 ± 7.4% and the cytotoxicity at 200 µg/mL ([4]; DU-145, 96 h, 96 hr) was 43.7 ± 4.3%. It also gave a cytotoxicity at 100 µg/mL ([5]; 24 h) of 57.5 ± 3%, a cytotoxicity at 150 µg/mL ([5]; 24 h, 24 hr) of 81.3 ± 4% and a cytotoxicity at 200 µg/mL ([5]; 24 h) of 93.2 ± 3.3%. For the same molecule, the cytotoxicity at 100 µg/mL ([5]; 48 h) was 41.5%, the cytotoxicity at 150 µg/mL ([5]; 48 h, 48 hr) was 92% and the cytotoxicity at 200 µg/mL ([5]; 48 h) was 88%. The “% Cytotoxicity” value ([6]; 200 μg/ml, 24 hr, 1440 min) was over 58%, the cytotoxicity at 100 µg/mL ([6]; L1210, 24 h, 24 hr) was 33.2 ± 2% and the cytotoxicity at 150 µg/mL ([6]; L1210, 24 h, 24 hr) was 50 ± 4.1%. For the same molecule, the cytotoxicity at 200 µg/mL ([6]; L1210, 24 h, 200 μg/ml, 24 hr) was 58.7 ± 2.6%, the cytotoxicity at 100 µg/mL ([6]; L1210, 48 h, 48 hr) was 29 ± 3.5% and the cytotoxicity at 150 µg/mL ([6]; L1210, 48 h, 48 hr) was 53.7 ± 2.5%. For the same molecule, the cytotoxicity at 200 µg/mL ([6]; L1210, 48 h, 200 μg/ml, 48 hr) was 72.5 ± 2.4%.
